Laboratory results from patent US20050197350A1, “Novel quinoline, tetrahydroquinazoline, and pyrimidine derivatives and methods of treatment related to the use thereof” (TAISHO PHARMACEUTICAL CO., LTD., priority 2003, published 2005).

Tested on: MCH receptors
Experiment: MCH receptor activity class (method not given)
[1] = class by percent of control at 10^-7 M or IC50
[2] = MCH receptor, class by percent of control at 10^-7 M or IC50
[3] = class by percent of control at 10^−7 M or IC50
[4] = class 1-3 by percent of control at 10^-7 M or IC50
[5] = activity class per percent of control at 10^-7 M or IC50
[6] = activity class 1-3: percent of control at 10^-7 M or IC50
[7] = MCH receptor activity class 1-3 (percent of control at 10^-7 M or IC50)

`CN(C)c1cc(N[C@H]2CC[C@@H](NC(=S)Nc3c(Cl)cc(Cl)cc3Cl)CC2)nc2ccccc12` [compound 2274, N-(cis-4-{[4-(dimethylamino)quinolin-2-yl]amino}cyclohexyl)-N′-(2,4,6-trichlorophenyl)thiourea] was tested, and the class [1] was 2 (Class 2: The value of percent of control at 10^−7 M was from 40% to 60% or the value of IC′50 was from 50 nM to 200 nM.).

In the case of `CN(C)c1nc(N[C@H]2CC[C@@H](NC(=O)Nc3ccccc3OC(F)(F)F)CC2)nc2c1CCCC2` [compound 1909, N-(cis-4-{[4-(dimethylamino)-5,6,7,8-tetrahydroquinazolin-2-yl]amino}cyclohexyl)-N′-[2-(trifluoromethoxy)phenyl]urea], the class [2] is reported as 2 (Class 2: The value of percent of control at 10^−7 M was from 40% to 60% or the value of IC′50 was from 50 nM to 200 nM.).

With `Cc1cc(N(C)C)nc(N[C@H]2CC[C@@H](NC(=O)c3ccc(F)c(C)c3)CC2)n1` [compound 2964, N-(cis-4-{[4-(dimethylamino)-6-methylpyrimidin-2-yl]amino}cyclohexyl)-4-fluoro-3-methylbenzamide] the class [3] was 1 (Class 1: The value of percent of control at 10^−7 M was less than 40% or the value of IC50 was less than 50 nM.).

`CN(C)c1nc(N[C@H]2CC[C@@H](NC(=O)C3CCCCC3)CC2)nc2c1CCCC2` [compound 533] was tested, and the class [4] was 3 (Class 3 The value of percent of control at 10^−7 M was more than 60% or the value of IC50 was more than 200 nM.).

`CN(C)c1ccnc(N[C@H]2CC[C@@H](NC(=O)c3ccc([N+](=O)[O-])cc3F)CC2)n1` [compound 912] was tested, and the class [1] was 3 (Class 3 The value of percent of control at 10^−7 M was more than 60% or the value of IC50 was more than 200 nM.).

In the case of `CCc1cccc(NC(=O)N[C@H]2CC[C@@H](Nc3nc4c(c(N(C)C)n3)CCCC4)CC2)c1` [compound 1871], the class [1] is reported as 3 (Class 3 The value of percent of control at 10^−7 M was more than 60% or the value of IC50 was more than 200 nM.).

`CN(C)c1nc(N[C@H]2CC[C@@H](NC(=O)CCCc3ccc([N+](=O)[O-])cc3)CC2)nc2c1CCCC2` [compound 1001] was tested, and the class [5] was 1 (Class 1: The value of percent of control at 10^−7 M was less than 40% or the value of IC50 was less than 50 nM.).

For `Cc1cc(NC(=O)N[C@H]2CC[C@@H](Nc3cc(N(C)C)c4ccccc4n3)CC2)c(C(F)(F)F)o1` [compound 2122], the class [1] was 3 (Class 3 The value of percent of control at 10^−7 M was more than 60% or the value of IC50 was more than 200 nM.).

For `Cc1cc(N(C)C)nc(N[C@H]2CC[C@@H](CNC(=O)c3ccc(C)c(F)c3)CC2)n1` [compound 2755], the class [3] was 2 (Class 2: The value of percent of control at 10^−7 M was from 40% to 60% or the value of IC′50 was from 50 nM to 200 nM.).

For `COc1cc(CN[C@H]2CC[C@@H](Nc3nc4c(c(N(C)C)n3)CCCC4)CC2)cc(OC)c1OC` [compound 1340], the class [1] was 3 (Class 3 The value of percent of control at 10^−7 M was more than 60% or the value of IC50 was more than 200 nM.).

`CN(C)c1ccnc(N[C@H]2CC[C@@H](CNCCCC#Cc3ccccc3)CC2)n1` [compound 1530] was tested, and the class [6] was 3 (Class 3 The value of percent of control at 10^−7 M was more than 60% or the value of IC50 was more than 200 nM.).

`CN(C)c1ccnc(N[C@H]2CC[C@@H](CNC(=O)CSc3ccccc3)CC2)n1` [compound 408] was tested, and the class [1] was 3 (Class 3 The value of percent of control at 10^−7 M was more than 60% or the value of IC50 was more than 200 nM.).

For `CN(C)c1ccnc(N[C@H]2CC[C@@H](CNC(=O)Nc3c(Br)cc(F)cc3Br)CC2)n1` [compound 2444, N-(2,6-dibromo-4-fluorophenyl)-N′-[(cis-4-{[4-(dimethylamino)pyrimidin-2-yl]amino}cyclohexyl)methyl]urea], the class [7] was 1 (Class 1: The value of percent of control at 10^−7 M was less than 40% or the value of IC50 was less than 50 nM.).

With `CN(C)c1cc(N[C@H]2CC[C@@H](NC(=O)c3cccc([N+](=O)[O-])c3)CC2)nc2ccccc12` [compound 44, N-(cis-4-{[4-(dimethylamino)quinolin-2-yl]amino}cyclohexyl)-3-nitrobenzamide] the class [2] was 1 (Class 1: The value of percent of control at 10^−7 M was less than 40% or the value of IC50 was less than 50 nM.).

With `C[C@@H](NC(=O)c1ccccc1C(=O)N[C@H]1CC[C@@H](Nc2cc(N(C)C)c3ccccc3n2)CC1)c1cccc2ccccc12` [compound 737] the class [1] was 3 (Class 3 The value of percent of control at 10^−7 M was more than 60% or the value of IC50 was more than 200 nM.).

`CCOC(=O)c1cccc(NC(=O)N[C@H]2CC[C@@H](Nc3nc4c(c(N(C)C)n3)CCCC4)CC2)c1` [compound 1697] was tested, and the class [6] was 3 (Class 3 The value of percent of control at 10^−7 M was more than 60% or the value of IC50 was more than 200 nM.).

`Cc1cccc(NC(=O)N[C@H]2CC[C@@H](Nc3nccc(N(C)C)n3)CC2)c1C` [compound 2216] was tested, and the class [1] was 3 (Class 3 The value of percent of control at 10^−7 M was more than 60% or the value of IC50 was more than 200 nM.).

`CN(C)c1nc(N[C@H]2CC[C@@H](CNC(=O)Nc3c(F)cc(Br)cc3F)CC2)nc2c1CCCC2` [compound 2478] was tested, and the class [7] was 3 (Class 3 The value of percent of control at 10^−7 M was more than 60% or the value of IC50 was more than 200 nM.).

In the case of `CC(=O)OC(C(=O)N[C@H]1CC[C@@H](Nc2nccc(N(C)C)n2)CC1)c1ccccc1` (relative stereo) [compound 310], the class [1] is reported as 3 (Class 3 The value of percent of control at 10^−7 M was more than 60% or the value of IC50 was more than 200 nM.).

`C[C@H](NC(=O)c1ccccc1C(=O)N[C@H]1CC[C@@H](Nc2nc3c(c(N(C)C)n2)CCCC3)CC1)c1ccccc1` [compound 1034] was tested, and the class [5] was 3 (Class 3 The value of percent of control at 10^−7 M was more than 60% or the value of IC50 was more than 200 nM.).

For `CC(C)c1ccccc1NC(=O)N[C@H]1CC[C@@H](Nc2nc3c(c(N(C)C)n2)CCCC3)CC1` [compound 1680], the class [6] was 3 (Class 3 The value of percent of control at 10^−7 M was more than 60% or the value of IC50 was more than 200 nM.).

With `COc1ccc2[nH]cc(CNC[C@H]3CC[C@@H](Nc4nccc(N(C)C)n4)CC3)c2c1` [compound 1248] the class [1] was 2 (Class 2: The value of percent of control at 10^−7 M was from 40% to 60% or the value of IC′50 was from 50 nM to 200 nM.).

For `CN(C)c1nc(N[C@H]2CC[C@@H](NC(=O)c3cccc(C(F)(F)F)c3)CC2)nc2c1CCCC2` [compound 552], the class [4] was 1 (Class 1: The value of percent of control at 10^−7 M was less than 40% or the value of IC50 was less than 50 nM.).

With `CN(C)c1cc(N[C@H]2CC[C@@H](NC(=S)Nc3ccc4c(c3)OCO4)CC2)nc2ccccc12` [compound 2305] the class [7] was 3 (Class 3 The value of percent of control at 10^−7 M was more than 60% or the value of IC50 was more than 200 nM.).

In the case of `CC(C)c1ccccc1NC(=S)N[C@H]1CC[C@@H](Nc2cc(N(C)C)c3ccccc3n2)CC1` [compound 2281], the class [1] is reported as 3 (Class 3 The value of percent of control at 10^−7 M was more than 60% or the value of IC50 was more than 200 nM.).

`COc1cc([N+](=O)[O-])ccc1NC(=O)N[C@H]1CC[C@@H](Nc2nc3c(c(N(C)C)n2)CCCC3)CC1` [compound 1861] was tested, and the class [1] was 3 (Class 3 The value of percent of control at 10^−7 M was more than 60% or the value of IC50 was more than 200 nM.).

For `CN(C)c1ccnc(N[C@H]2CC[C@@H](NC(=O)c3ccc(C(F)(F)F)c(F)c3)CC2)n1` [compound 911], the class [1] was 3 (Class 3 The value of percent of control at 10^−7 M was more than 60% or the value of IC50 was more than 200 nM.).

In the case of `COc1ccc([N+](=O)[O-])cc1NC(=O)N[C@H]1CC[C@@H](Nc2nc3c(c(N(C)C)n2)CCCC3)CC1` [compound 1862], the class [1] is reported as 3 (Class 3 The value of percent of control at 10^−7 M was more than 60% or the value of IC50 was more than 200 nM.).

With `C=CCOC(=O)N[C@H]1CC[C@@H](Nc2cc(N(C)C)c3ccccc3n2)CC1` [compound 1550] the class [6] was 3 (Class 3 The value of percent of control at 10^−7 M was more than 60% or the value of IC50 was more than 200 nM.).

`Cc1cc(N(C)C)nc(N[C@H]2CC[C@@H](C(=O)NCc3cc(C(F)(F)F)cc(C(F)(F)F)c3)CC2)n1` [compound 2814, cis-N-[3,5-bis(trifluoromethyl)benzyl]-4-{[4-(dimethylamino)-6-methylpyrimidin-2-yl]amino}cyclohexanecarboxamide] was tested, and the class [3] was 1 (Class 1: The value of percent of control at 10^−7 M was less than 40% or the value of IC50 was less than 50 nM.).

With `CN(C)c1nc(N[C@H]2CC[C@@H](NC(=O)Nc3ccc(OC(F)F)cc3)CC2)nc2c1CCCC2` [compound 1876] the class [1] was 3 (Class 3 The value of percent of control at 10^−7 M was more than 60% or the value of IC50 was more than 200 nM.).

With `CN(C)c1nc(N[C@H]2CC[C@@H](NC(=O)Cc3ccc(Cl)cc3)CC2)nc2c1CCCC2` [compound 464, 2-(4-chlorophenyl)-N-(cis-4-{[4-(dimethylamino)-5,6,7,8-tetrahydroquinazolin-2-yl]amino}cyclohexyl)acetainide] the class [4] was 1 (Class 1: The value of percent of control at 10^−7 M was less than 40% or the value of IC50 was less than 50 nM.).

In the case of `CN(C)c1cc(N[C@H]2CC[C@@H](NC(=S)NC3CC4CCC3C4)CC2)nc2ccccc12` (relative stereo) [compound 2310], the class [7] is reported as 3 (Class 3 The value of percent of control at 10^−7 M was more than 60% or the value of IC50 was more than 200 nM.).

With `CN(C)c1ccnc(N[C@H]2CC[C@@H](CNC(=O)C(Cc3ccccc3)c3ccccc3)CC2)n1` (relative stereo) [compound 930, N-[(cis-4-{[4-(dimethylamino)pyrimidin-2-yl]amino}cyclohexyl)methyl]-2,3-diphenylpropanamide] the class [1] was 2 (Class 2: The value of percent of control at 10^−7 M was from 40% to 60% or the value of IC′50 was from 50 nM to 200 nM.).

For `COc1cccc(C(=O)N[C@H]2CC[C@@H](Nc3nc4c(c(N(C)C)n3)CCCC4)CC2)c1` [compound 456], the class [4] was 1 (Class 1: The value of percent of control at 10^−7 M was less than 40% or the value of IC50 was less than 50 nM.).

For `Cc1ccc(C(=O)N[C@H]2CC[C@@H](Nc3nc4c(c(N(C)C)n3)CCCC4)CC2)c(F)c1F` [compound 496], the class [4] was 3 (Class 3 The value of percent of control at 10^−7 M was more than 60% or the value of IC50 was more than 200 nM.).
